Laboratory results from patent publication US20190134003A1, “COMBINATION THERAPIES USING INDAZOLYLBENZAMIDE DERIVATIVES FOR THE TREATMENT OF CANCER” (ESANEX, INC., priority 2016, published 2019).

Columns and labels:
[1] = Dose escalation, MTD/DLT and adverse events of SNX-5422 with carboplatin and paclitaxel in patients; type: in vivo, human; details: SNX-5422 qod in combination with carboplatin (AUC 5) and paclitaxel (175 mg/m^2)
Excerpt: The performed dosing schedule is disclosed in FIG. 1. SNX-5422 dose was escalated as follows.

[2] = every other day (qod), previously-established; cited from earlier work

**Q.** For `CC1(C)CC(=O)c2c(C(F)(F)F)nn(-c3ccc(C(N)=O)c(N[C@H]4CC[C@H](OC(=O)CN)CC4)c3)c2C1` [SNX-5422, trans-4-{(2-(aminocarbonyl)-5-[6,6-dimethyl-4-oxo-3-(trifluoromethyl)-4,5,6,7-tetrahydro-1H-indazol-1-yl]phenyl}amino)cyclohexyl glycinate], which “Maximum Tolerated Dose” value [1] is on record?
**A.** 100 mg/m^2

**Q.** What about the “single agent MTD” value [2] of the same molecule?
**A.** 100 mg/m^2
